Results from patent publication US12435087B2, “Modulators of DCN-1 and methods of use thereof” (Cellarity, Inc., priority 2023, dated 2025).
Like-named read-outs stand apart in the source and are kept apart here.

Biological target: DCN1 (DCUND1) protein PONY domain (Homo sapiens (Human), UniProt Q96GG9)
Experiment: TR-FRET assay (binding to DCN-1, displacement of FAM-labeled probe)
Procedure, shortened: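 Compounds read at 1, 5 and 24 h, 0.1% final DMSO, by TR-FRET between terbium-streptavidin on biotinylated DCN1 PONY domain (E. coli) and a FAM-tagged non-covalent inhibitor probe. Two setups used, 5 nM protein with 20 nM labelled probe, or 0.31 nM protein with 100 nM labelled plus 800 nM unlabelled probe; buffer had TritonX and 200 mM NaCl. % activity relative to high (with probe) and low (without probe) controls.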

[1] = 24 hr after treatment with compound, read-out: TR FRET IC50 24 hr
[2] = TR FRET IC50 1 hr (nM), 1 hr after treatment with compound
[3] = read-out: TR FRET IC50 1 hr, 1 hr after treatment with compound

Chain of DCN1 (DCUND1) protein PONY domain (Q96GG9 60-248): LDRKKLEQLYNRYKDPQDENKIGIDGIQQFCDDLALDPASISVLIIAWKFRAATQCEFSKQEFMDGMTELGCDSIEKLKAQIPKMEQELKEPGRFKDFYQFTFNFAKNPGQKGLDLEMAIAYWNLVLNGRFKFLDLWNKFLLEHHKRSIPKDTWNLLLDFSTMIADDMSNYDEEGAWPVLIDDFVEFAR

CCN1C(=O)[C@@H](NC(=O)c2nccc(C(F)(F)F)n2)[C@H](c2ccccc2/C=C/C#N)c2cnn(-c3ccccc3)c21 (racemic) [Compound I-259, rac-N-((4R,5S)-4-(2-((E)-2-cyanovinyl)phenyl)-7-ethyl-6-oxo-1-phenyl-4,5,6,7-tetrahydro-1H-pyrazolo[3,4-b]pyridin-5-yl)-4-(trifluoromethyl)pyrimidine-2-carboxamide]
IC50 [1]: 1000 to 3000 nM | IC50 [2]: 1000 to 3000 nM

CCN1C(=O)[C@@H](NC(=O)c2nccc(C(F)(F)F)n2)[C@H](c2ccccc2/C=C\C#N)c2cnn(-c3ccccc3)c21 (racemic) [Compound I-260, rac-N-((4R,5S)-4-(2-((Z)-2-cyanovinyl)phenyl)-7-ethyl-6-oxo-1-phenyl-4,5,6,7-tetrahydro-1H-pyrazolo[3,4-b]pyridin-5-yl)-4-(trifluoromethyl)pyrimidine-2-carboxamide]
IC50 [1]: 1000 to 3000 nM | IC50 [2]: 1000 to 3000 nM

CCN1C(=O)[C@@H](NC(=O)c2nccc(C(F)(F)F)n2)[C@H](c2cccc(NC(=O)/C=C/C(=O)N3CCCC3)c2)c2c(C)nn(-c3ccccc3)c21 (racemic) [Compound I-262]
IC50 [1]: 1000 to 3000 nM | IC50 [2]: 1000 to 3000 nM

CCN1C(=O)[C@@H](NC(=O)c2nccc(C(F)(F)F)n2)[C@H](c2cccc(NC(=O)/C=C/CN(C)C)n2)c2cnn(-c3ccccc3)c21 (racemic) [Compound I-265]
IC50 [1]: 200 to 1000 nM | IC50 [2]: 200 to 1000 nM

CCN1C(=O)[C@@H](NC(=O)c2nccc(C(F)(F)F)n2)[C@H](c2cccc(NC(=O)C3=CCC3)n2)c2cnn(-c3ccccc3)c21 (racemic) [Compound I-279]
IC50 [1]: 1000 to 3000 nM | IC50 [2]: 1000 to 3000 nM

CCN1C(=O)[C@@H](NC(=O)c2cccc(C(F)(F)F)c2)[C@H](c2cccc3c2CN(C#N)C3)c2cnn(-c3ccccc3)c21 (racemic) [Compound I-282, rac-N-((4R,5S)-4-(2-cyanoisoindolin-4-yl)-7-ethyl-6-oxo-1-phenyl-4,5,6,7-tetrahydro-1H-pyrazolo[3,4-b]pyridin-5-yl)-3-(trifluoromethyl)benzamide]
IC50 [1]: 1000 to 3000 nM | IC50 [2]: 1000 to 3000 nM

CCN1C(=O)[C@@H](NC(=O)c2nccc(C(F)(F)F)n2)[C@H](c2cccc(NC(=O)/C=C/C(=O)OC(C)(C)C)c2)c2c(C)nn(-c3ccccc3)c21 (racemic) [Compound I-359, rac-tert-butyl (E)-4-((3-((4R,5S)-7-ethyl-3-methyl-6-oxo-1-phenyl-5-(4-(trifluoromethyl)pyrimidine-2-carboxamido)-4,5,6,7-tetrahydro-1H-pyrazolo[3,4-b]pyridin-4-yl)phenyl)amino)-4-oxobut-2-enoate]
IC50 [1]: ≤ 200 nM | IC50 [2]: 1000 to 3000 nM

CCN1C(=O)[C@@H](NC(=O)c2nccc(C(F)(F)F)n2)[C@H](c2cccc(C(=O)N(C)CC#N)c2)c2cnn(-c3ccccc3)c21 (racemic) [Compound I-370]
IC50 [1]: 1000 to 3000 nM | IC50 [2]: 1000 to 3000 nM

CCN1C(=O)[C@@H](NC(=O)c2nccc(C(F)(F)F)n2)[C@H](c2cccc(NC(=O)C3=CCN(C)C3)n2)c2cnn(-c3ccccc3)c21 (racemic) [Compound I-376, rac-N-((4R,5S)-7-ethyl-4-(6-(1-methyl-2,5-dihydro-1H-pyrrole-3-carboxamido)pyridin-2-yl)-6-oxo-1-phenyl-4,5,6,7-tetrahydro-1H-pyrazolo[3,4-b]pyridin-5-yl)-4-(trifluoromethyl)pyrimidine-2-carboxamide]
IC50 [1]: ≤ 200 nM | IC50 [2]: 200 to 1000 nM

C=C(CN1CCOCC1)C(=O)NCc1cccc([C@@H]2c3cnn(-c4ccccc4)c3N(CC)C(=O)[C@H]2NC(=O)c2ccn(C)n2)c1 (single isomer, unassigned) [Compound I-51]
IC50 [3]: 1000 to 3000 nM

C=C(C(=O)NCc1cccc([C@@H]2c3cnn(-c4ccccc4)c3N(CC)C(=O)[C@H]2NC(=O)c2nccc(C(F)(F)F)n2)c1)[C@H](C)N(C)C1COC1 (single isomer, unassigned) [Compound I-382]
IC50 [2]: 200 to 1000 nM

CCN1C(=O)C(NC(=O)c2cccc(C(F)(F)F)c2)[C@@H](c2cccc(NC(=O)C(Cl)Cl)c2)c2c(C)nn(-c3ccccc3)c21 (stereo in doubt) [Compound I-42, N-((4S,5R)-4-(3-(2,2-dichloroacetamido)phenyl)-7-ethyl-3-methyl-6-oxo-1-phenyl-4,5,6,7-tetrahydro-1H-pyrazolo[3,4-b]pyridin-5-yl)-3-(trifluoromethyl)benzamide]
IC50 [1]: 1000 to 3000 nM | IC50 [3]: > 3000 nM

C=C(CN1CCN(C2COC2)CC1)C(=O)NCc1cccc([C@@H]2c3c(C)nn(-c4ccccc4)c3N(CC)C(=O)[C@H]2NC(=O)c2cccc(C(F)(F)F)c2)c1 (stereo in doubt) [Compound I-252]
IC50 [1]: ≤ 200 nM | IC50 [2]: 1000 to 3000 nM

C=C(CN1CC2CC1CO2)C(=O)NCc1cccc([C@@H]2c3cnn(-c4ccccc4)c3N(CC)C(=O)[C@H]2NC(=O)c2cccc(C(F)(F)F)c2)c1 (stereo partly shown) [Compound I-7]
IC50 [1]: ≤ 200 nM | IC50 [3]: ≤ 200 nM

C=C(CN1C2COCC1C2)C(=O)NCc1cccc([C@@H]2c3cnn(-c4ccccc4)c3N(CC)C(=O)[C@H]2NC(=O)c2cccc(C(F)(F)F)c2)c1 [Compound I-8]
IC50 [1]: ≤ 200 nM | IC50 [3]: ≤ 200 nM

C=C(CN1CCC(C)(O)C1)C(=O)NCc1cccc([C@@H]2c3cnn(-c4ccccc4)c3N(CC)C(=O)[C@H]2NC(=O)c2cccc(C(F)(F)F)c2)c1 (stereo partly drawn) [Compound I-10, N-((4R,5S)-7-ethyl-4-(3-((2-((3-hydroxy-3-methylpyrrolidin-1-yl)methyl)acrylamido)methyl)phenyl)-6-oxo-1-phenyl-4,5,6,7-tetrahydro-1H-pyrazolo[3,4-b]pyridin-5-yl)-3-(trifluoromethyl)benzamide]
IC50 [1]: ≤ 200 nM | IC50 [3]: ≤ 200 nM

C=C(CN1CC2(CCOC2)C1)C(=O)NCc1cccc([C@@H]2c3cnn(-c4ccccc4)c3N(CC)C(=O)[C@H]2NC(=O)c2cccc(C(F)(F)F)c2)c1 [Compound I-12]
IC50 [1]: ≤ 200 nM | IC50 [3]: ≤ 200 nM

C=C(CN1CC2CC1C2)C(=O)NCc1cccc([C@@H]2c3cnn(-c4ccccc4)c3N(CC)C(=O)[C@H]2NC(=O)c2cccc(C(F)(F)F)c2)c1 [Compound I-13]
IC50 [1]: ≤ 200 nM | IC50 [3]: ≤ 200 nM

CCN1C(=O)[C@@H](NC(=O)c2cccc(C(F)(F)F)c2)[C@H](c2ccc(F)c(NC(=O)/C=C/CN(C)C)c2)c2cnn(-c3ccccc3)c21 [Compound I-32]
IC50 [1]: ≤ 200 nM | IC50 [2]: 1000 to 3000 nM

CCN1C(=O)[C@@H](NC(=O)c2cccc(C(F)(F)F)c2)[C@H](c2cccc(CNC(=O)C3=CCCN(C)C3)c2)c2cnn(-c3ccccc3)c21 [Compound I-33]
IC50 [1]: 1000 to 3000 nM | IC50 [2]: 1000 to 3000 nM

CCN1C(=O)[C@@H](NC(=O)c2nccc(C(F)(F)F)n2)[C@H](c2cccc(NC(=O)C3=CCN(C)C3)c2)c2c(C)nn(-c3ccccc3)c21 [Compound I-37]
IC50 [1]: ≤ 200 nM | IC50 [3]: ≤ 200 nM

C=C(CN1CCOCC1)C(=O)NCc1cccc([C@H]2c3cnn(-c4ccccc4)c3N(CC)C(=O)[C@@H]2NC(=O)c2nccc(C(F)(F)F)n2)c1 [Compound I-43]
IC50 [1]: 1000 to 3000 nM | IC50 [2]: 1000 to 3000 nM

C=C(CC(=O)OC)C(=O)NCc1cccc([C@@H]2c3cnn(-c4ccccc4)c3N(CC)C(=O)[C@H]2NC(=O)c2cccc(C(F)(F)F)c2)c1 [Compound I-50]
IC50 [1]: ≤ 200 nM | IC50 [2]: 1000 to 3000 nM

CCN1C(=O)[C@@H](NC(=O)c2cccc(C(F)(F)F)c2)[C@H](c2ccccc2NC(=O)CCl)c2c(C)nn(-c3ccccc3)c21 [Compound I-52, N-((4R,5S)-4-(2-(2-chloroacetamido)phenyl)-7-ethyl-3-methyl-6-oxo-1-phenyl-4,5,6,7-tetrahydro-1H-pyrazolo[3,4-b]pyridin-5-yl)-3-(trifluoromethyl)benzamide]
IC50 [1]: ≤ 200 nM | IC50 [2]: 1000 to 3000 nM

CCN1C(=O)[C@@H](NC(=O)c2cccc(C(F)(F)F)c2)[C@H](c2cccc(CNC(=O)C3=CCN(C)C3)c2)c2cnn(-c3ccccc3)c21 [Compound I-54]
IC50 [1]: ≤ 200 nM | IC50 [2]: 1000 to 3000 nM

C=C(CC(=O)NCc1cccc([C@@H]2c3cnn(-c4ccccc4)c3N(CC)C(=O)[C@H]2NC(=O)c2cccc(C(F)(F)F)c2)c1)C(=O)OC [Compound I-57]
IC50 [1]: 1000 to 3000 nM | IC50 [2]: 1000 to 3000 nM

C=C(CN1CCC1)C(=O)NCc1cccc([C@H]2c3cnn(-c4ccccc4)c3N(CC)C(=O)[C@@H]2NC(=O)c2cccc(C(F)(F)F)c2)c1 [Compound I-59]
IC50 [1]: ≤ 200 nM | IC50 [2]: 1000 to 3000 nM

C=C(CN(C)CC1COC1)C(=O)NCc1cccc([C@@H]2c3cnn(-c4ccccc4)c3N(CC)C(=O)[C@H]2NC(=O)c2cccc(C(F)(F)F)c2)c1 [Compound I-61]
IC50 [1]: ≤ 200 nM | IC50 [3]: ≤ 200 nM

C=C(CN1CC2(CCO2)C1)C(=O)NCc1cccc([C@@H]2c3cnn(-c4ccccc4)c3N(CC)C(=O)[C@H]2NC(=O)c2cccc(C(F)(F)F)c2)c1 [Compound I-63]
IC50 [1]: ≤ 200 nM | IC50 [3]: ≤ 200 nM

CCN1C(=O)[C@@H](NC(=O)c2cccc(C(F)(F)F)c2)[C@H](c2cccc(NC(=O)C3=CCC3)c2)c2c(C)nn(-c3ccccc3)c21 [Compound I-70, N-((4R,5S)-4-(3-(cyclobut-1-ene-1-carboxamido)phenyl)-7-ethyl-3-methyl-6-oxo-1-phenyl-4,5,6,7-tetrahydro-1H-pyrazolo[3,4-b]pyridin-5-yl)-3-(trifluoromethyl)benzamide]
IC50 [1]: 200 to 1000 nM | IC50 [2]: 1000 to 3000 nM

CCN1C(=O)[C@@H](NC(=O)c2cccc(C(F)(F)F)c2)[C@H](c2cccc(CNC(=O)/C=C(\C)C(=O)OC)c2)c2cnn(-c3ccccc3)c21 [Compound I-73]
IC50 [1]: 1000 to 3000 nM | IC50 [2]: 1000 to 3000 nM

C=C(CO)C(=O)NCc1cccc([C@@H]2c3cnn(-c4ccccc4)c3N(CC)C(=O)[C@H]2NC(=O)c2cccc(C(F)(F)F)c2)c1 [Compound I-76]
IC50 [1]: 1000 to 3000 nM | IC50 [2]: 1000 to 3000 nM

C=C(CO)C(=O)NCc1cccc([C@H]2c3cnn(-c4ccccc4)c3N(CC)C(=O)[C@@H]2NC(=O)c2cccc(C(F)(F)F)c2)c1 [Compound I-87]
IC50 [1]: 1000 to 3000 nM | IC50 [2]: 1000 to 3000 nM
